Experiment [1] deals with T1, CAIX (Homo sapiens, UniProt Q16790).
T1 construct: purchased R&D Systems
Put plainly: Competitive fluorescence polarization assay with FITC-labeled 8. In kind it is binding. The settings on record: 100 nM CAIX, 80 nM 8, 30 min room temperature, triplicate; read-out: IC50 (inhibition of fluorescence polarization of FITC labeled 8). The source says: We synthesized fluorescein isothiocyanate (FITC)-labeled 8 as a standard to measure CAIX binding affinities of the corresponding radiotracers. […] CAIX-selective binding was confirmed by fluorescence microscopic analyses of SK-RC-53 and BxPC3 cells labeled with 8 (Fig. 2). […] In order to test the relative binding of XYIMSR-01 and [^113/115In]XYIMSR-01 to CAIX we modified a competitive fluorescence polarization assay for use with 8. For the competitive binding assay, after optimization for background fluorescence, we chose concentrations of 80 nM and 100 nM for 8 and CAIX, respectively. […] Increasing concentrations of 1, XYIMSR-01 and [^113/115In]XYIMSR-01 were incubated with CAIX for 30 min at room temperature. After 8 was added, fluorescence polarization signal was recorded. […] We took advantage of fluorescence polarization using 8 to measure relative binding affinities for other isoforms of the carbonic anhydrases. We chose to test one cytosolic (CAII) and an additional membrane-localized isoform (CAXII).
Fluorescence polarization (FP) experiments were performed in 21 μL of the assay buffer (12.5 mM Tris-HCl, pH 7.5, 75 mM NaCl) in black flat bottom 384-well microplates (Corning, Inc., New York, NY). The FP reaction employed 100 nM of purified CAIX (R&D systems, Minneapolis, MN) and 80 nM FITC-labeled 8 [27] within the assay buffer. The FP values were measured as mP units using the Victor3 multi-label plate reader equipped with excitation (485 nm) and emission (535 nm) filters (Perkin Elmer, Waltham, MA). 100 nM CAIX was incubated with serially diluted (from 1 μM to 61 fM) concentrations of the three targeting molecules, 1, XYIMSR-01, and [^113/115In]XYIMSR-01 for 30 min at room temperature in 384-well plates. 80 nM 8 was added to each well and the reaction was incubated for 30 min at room temperature followed by FP measurement. Experiments were carried out in triplicate and the concentration resulting in 50% response (IC50) was calculated in GraphPad Prism 5 (GraphPad Software, La Jolla, CA) using the sigmoidal dose-response regression function.
Background: Polarisation of emitted light reports the rotation of a fluorescent probe.

In experiment [2] the target is CAIX. Set-up: method as in PMID 25698334. The settings on record: reported value; cited from earlier work.

Usually IC50 stands for the concentration that gives 50% inhibition. What is called Kd is the constant that tells how readily two partners part at equilibrium. In the case of `CC(CCC(=O)N[C@@H](CC(=O)N[C@@H](CC(=O)N[C@@H](CCCCn1cc(CCCC(=O)Nc2nnc(S(N)(=O)=O)s2)nn1)C(=O)NCCOCCOCCN)C(=O)O)C(=O)O)(c1ccc(O)cc1)c1ccc(O)cc1` [Compound 1, N^4-((S)-1-((2-(2-(2-aminoethoxy)ethoxy)ethyl)amino)-1-oxo-6-(4-(4-oxo-4-((5-sulfamoyl-1,3,4-thiadiazol-2-yl)amino)butyl)-1H-1,2,3-triazol-1-yl)hexan-2-yl)-N^2-((S)-3-(4,4-bis(4-hydroxyphenyl)pentanamido)-3-carboxypropanoyl)-L-asparagine, reference compound], the concentration for half-maximal inhibition (IC50) on CAIX [1] stood at 75.9 nM. The Kd at CAIX [2] is 2.6 nM. As for `CC(CCC(=O)N[C@@H](CC(=O)N[C@@H](CC(=O)N[C@@H](CCCCn1cc(CCCC(=O)Nc2nnc(S(N)(=O)=O)s2)nn1)C(=O)NCCOCCOCCNC(=O)CN1CCN(CC(=O)O)CCN(CC(=O)O)CCN(CC(=O)O)CC1)C(=O)O)C(=O)O)(c1ccc(O)cc1)c1ccc(O)cc1` [XYIMSR-01, 2,2′,2′'-(10-((14S,18S,22S)-18,22-dicarboxy-27,27-bis(4-hydroxyphenyl)-2,13,16,20,24-pentaoxo-14-(4-(4-(4-oxo-4-((5-sulfamoyl-1,3,4-thiadiazol-2-yl)amino)butyl)-1H-1,2,3-triazol-1-yl)butyl)-6,9-dioxa-3,12,15,19,23-pentaazaoctacosyl)-1,4,7,10-tetraazacyclododecane-1,4,7-triyl)triacetic acid], the IC50 at CAIX [1] came to 67 nM. The same measure, in the same setting: the figure for `CC(CCC(=O)N[C@@H](CC(=O)N[C@@H](CC(=O)N[C@@H](CCCCn1cc(CCCC(=O)Nc2nnc(S(N)(=O)=O)s2)nn1)C(=O)NCCOCCOCCNC(=O)CN1CCN(CC(=O)[O-])CCN(CC(=O)[O-])CCN(CC(=O)[O-])CC1)C(=O)O)C(=O)O)(c1ccc(O)cc1)c1ccc(O)cc1.[In+3]` [[^113/115In]XYIMSR-01, ^113/115Indium(III) 2,2′,2′'-(10-((14S,18S,22S)-18,22-dicarboxy-27,27-bis(4-hydroxyphenyl)-2,13,16,20,24-pentaoxo-14-(4-(4-(4-oxo-4-((5-sulfamoyl-1,3,4-thiadiazol-2-yl)amino)butyl)-1H-1,2,3-triazol-1-yl)butyl)-6,9-dioxa-3,12,15,19,23-pentaazaoctacosyl)-1,4,7,10-tetraazacyclododecane-1,4,7-triyl)triacetate] is 108 nM.
